The values that follow come from ChEMBL document CHEMBL1201862, “PubChem BioAssay data set” (2004).

Calls of active or inactive are those of the source.

Test [1] has as its target Cytochrome P450 2C9 (Homo sapiens, UniProt P11712).
Test [2] deals with Epstein-Barr nuclear antigen 1 (Epstein-Barr virus (strain B95-8) (HHV-4) (Human herpesvirus 4), UniProt P03211). The experiment in a line: inhibition of EBV nuclear antigen 1 DNA binding – biochemical, fluorescence polarization, 1536-well, dose response (AID 2381).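 Note: fluorescence polarization of a Cy5 DNA probe bound by EBNA-1 protein.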 Further details: species or system human gammaherpesvirus 4.
Chain of Epstein-Barr nuclear antigen 1 (P03211 whole entry): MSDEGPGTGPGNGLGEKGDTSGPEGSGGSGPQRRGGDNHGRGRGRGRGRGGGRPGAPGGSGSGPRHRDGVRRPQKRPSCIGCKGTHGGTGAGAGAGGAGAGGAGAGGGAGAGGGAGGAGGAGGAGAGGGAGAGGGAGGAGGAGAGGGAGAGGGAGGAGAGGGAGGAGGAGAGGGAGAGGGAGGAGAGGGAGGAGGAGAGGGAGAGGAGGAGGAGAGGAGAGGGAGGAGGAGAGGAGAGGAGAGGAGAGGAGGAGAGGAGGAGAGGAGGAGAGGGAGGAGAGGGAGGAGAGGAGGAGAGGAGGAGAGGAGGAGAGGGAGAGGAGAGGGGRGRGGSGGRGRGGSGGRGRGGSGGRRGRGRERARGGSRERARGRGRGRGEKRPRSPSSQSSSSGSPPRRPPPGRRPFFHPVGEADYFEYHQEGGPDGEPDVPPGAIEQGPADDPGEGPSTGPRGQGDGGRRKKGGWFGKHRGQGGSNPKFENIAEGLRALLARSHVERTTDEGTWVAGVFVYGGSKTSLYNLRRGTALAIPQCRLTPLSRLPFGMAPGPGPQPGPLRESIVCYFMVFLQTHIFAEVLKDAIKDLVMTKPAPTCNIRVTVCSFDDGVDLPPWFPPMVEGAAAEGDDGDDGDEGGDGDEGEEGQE
The target in test [3] is Lytic switch protein BZLF1 (Epstein-Barr virus (strain B95-8) (HHV-4) (Human herpesvirus 4), UniProt P03206). Nature of the test: inhibition of BZLF1 ZTA DNA binding – biochemical, fluorescence polarization, Epstein-Barr virus, 1536-well, counter-screen for EBNA-1 inhibitor project, dose response (AID 2377).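 Note: fluorescence polarization of Cy5-labelled ZRE DNA probe bound by purified Zta.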 Further details: species or system human gammaherpesvirus 4.
Chain of Lytic switch protein BZLF1 (P03206 whole entry): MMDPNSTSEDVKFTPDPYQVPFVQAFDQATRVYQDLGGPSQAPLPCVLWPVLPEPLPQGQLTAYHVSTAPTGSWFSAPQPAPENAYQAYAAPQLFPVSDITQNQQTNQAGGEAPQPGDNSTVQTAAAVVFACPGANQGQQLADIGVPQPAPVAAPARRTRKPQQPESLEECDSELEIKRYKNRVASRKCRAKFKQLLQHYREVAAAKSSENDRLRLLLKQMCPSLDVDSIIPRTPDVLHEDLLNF
Test [4] has as its target T1, Streptokinase A (Streptococcus pyogenes serotype M1, UniProt P10520).
T1 sequence (P10520 whole entry): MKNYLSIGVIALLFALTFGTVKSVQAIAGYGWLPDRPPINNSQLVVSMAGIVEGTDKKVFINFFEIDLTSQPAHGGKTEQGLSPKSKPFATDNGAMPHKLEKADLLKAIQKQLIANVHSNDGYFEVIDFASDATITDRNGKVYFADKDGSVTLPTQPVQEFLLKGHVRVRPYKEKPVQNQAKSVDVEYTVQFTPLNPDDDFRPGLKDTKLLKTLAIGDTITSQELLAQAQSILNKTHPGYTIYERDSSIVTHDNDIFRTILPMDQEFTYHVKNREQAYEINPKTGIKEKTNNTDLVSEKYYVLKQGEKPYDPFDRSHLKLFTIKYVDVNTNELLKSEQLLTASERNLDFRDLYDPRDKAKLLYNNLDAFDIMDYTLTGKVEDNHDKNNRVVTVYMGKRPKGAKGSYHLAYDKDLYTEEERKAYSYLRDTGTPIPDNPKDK
The experiment in a line: viability-normalized secreted streptokinase activity reduction – plasminogen activation absorbance, OD405, dose response (AID 1914).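 Note: secreted streptokinase activity via plasminogen activation per viability signal from cell pellet.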 The class given is functional, Streptococcus pyogenes M1 GAS.

In test [5] the target is T2, Insulin-degrading enzyme (Homo sapiens, UniProt P14735).
T2 sequence (P14735 whole entry): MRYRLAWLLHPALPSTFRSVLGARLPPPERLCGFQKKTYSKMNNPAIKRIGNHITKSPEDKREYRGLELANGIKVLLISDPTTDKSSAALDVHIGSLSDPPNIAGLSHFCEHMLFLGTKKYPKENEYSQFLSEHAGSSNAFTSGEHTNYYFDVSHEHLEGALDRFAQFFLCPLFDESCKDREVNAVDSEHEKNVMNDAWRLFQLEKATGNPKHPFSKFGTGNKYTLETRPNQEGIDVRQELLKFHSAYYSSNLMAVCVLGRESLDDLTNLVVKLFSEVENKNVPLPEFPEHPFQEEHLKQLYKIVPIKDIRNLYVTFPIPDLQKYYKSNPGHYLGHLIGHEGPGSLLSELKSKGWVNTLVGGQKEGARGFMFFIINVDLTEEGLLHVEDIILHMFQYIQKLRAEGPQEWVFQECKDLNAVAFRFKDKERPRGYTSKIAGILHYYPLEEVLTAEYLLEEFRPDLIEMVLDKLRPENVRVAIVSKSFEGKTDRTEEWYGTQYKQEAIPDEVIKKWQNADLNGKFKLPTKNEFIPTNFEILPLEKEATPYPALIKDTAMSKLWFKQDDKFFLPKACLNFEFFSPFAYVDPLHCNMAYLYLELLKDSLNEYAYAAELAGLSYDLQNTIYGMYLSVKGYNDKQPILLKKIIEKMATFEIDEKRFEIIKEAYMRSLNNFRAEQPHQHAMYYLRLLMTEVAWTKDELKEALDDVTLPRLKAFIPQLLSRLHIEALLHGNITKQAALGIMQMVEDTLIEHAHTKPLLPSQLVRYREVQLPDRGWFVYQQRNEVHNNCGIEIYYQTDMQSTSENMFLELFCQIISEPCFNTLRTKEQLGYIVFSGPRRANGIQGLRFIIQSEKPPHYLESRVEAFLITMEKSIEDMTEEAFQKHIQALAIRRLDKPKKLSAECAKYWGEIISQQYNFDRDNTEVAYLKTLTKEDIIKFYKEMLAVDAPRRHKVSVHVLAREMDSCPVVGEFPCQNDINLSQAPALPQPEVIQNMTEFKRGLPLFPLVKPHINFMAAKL
The experiment in a line: Dose Response: Fluorescence polarization-based cell-based high throughput dose response assay for inhibitors of insulin-degrading enzyme (IDE). [Related pubchem assays: 434962 (Primary screen (IDE inhibitors in singlicate)), 449730 (Counterscreen (Cytotoxicity in triplicate)), 435028 (Confirmation (IDE inhibitors in triplicate)), 434984 (Summary …. It counts as functional.

The nature of test [6]: Counterscreen for IDE inhibitors: Luminescence-based cell-based high throughput dose response assay to identify compounds that are cytotoxic to HEK cells. [Related pubchem assays: 434962 (Primary screen (IDE inhibitors in singlicate)), 449730 (Counterscreen (Cytotoxicity in triplicate)), 435028 (Confirmation (IDE inhibitors in triplicate)) …. The class given is functional. The settings on record: HEK293.

In test [7] the test system is Streptococcus sp. 'group A'. The experiment in a line: Streptococcus pyogenes SK(-)GAS viability under kanamycin – luminescence, BacTiterGlo, confirmation, counter-screen for streptokinase expression inhibitor project, dose response (AID 1900). It counts as functional, organism-based.
The subject of test [8] is Streptococcus. Nature of the test: GAS UMAA2166 growth inhibition – luminescence, BacTiterGlo, counter-screen for streptokinase expression inhibitor project, dose response (AID 1915).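 Note: potency for reduction of bacterial viability or growth.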 It counts as functional, organism-based.
Test [9] in a line: A Cell Based Secondary Assay To Explore Cytotoxicity of Compounds that Sensitize Mycobacterium Tuberculosis to Beta-Lactam Antibiotics. It counts as functional.
Test [10] addresses T3, Estrogen receptor (Homo sapiens, UniProt P03372).
T3 sequence (P03372 whole entry): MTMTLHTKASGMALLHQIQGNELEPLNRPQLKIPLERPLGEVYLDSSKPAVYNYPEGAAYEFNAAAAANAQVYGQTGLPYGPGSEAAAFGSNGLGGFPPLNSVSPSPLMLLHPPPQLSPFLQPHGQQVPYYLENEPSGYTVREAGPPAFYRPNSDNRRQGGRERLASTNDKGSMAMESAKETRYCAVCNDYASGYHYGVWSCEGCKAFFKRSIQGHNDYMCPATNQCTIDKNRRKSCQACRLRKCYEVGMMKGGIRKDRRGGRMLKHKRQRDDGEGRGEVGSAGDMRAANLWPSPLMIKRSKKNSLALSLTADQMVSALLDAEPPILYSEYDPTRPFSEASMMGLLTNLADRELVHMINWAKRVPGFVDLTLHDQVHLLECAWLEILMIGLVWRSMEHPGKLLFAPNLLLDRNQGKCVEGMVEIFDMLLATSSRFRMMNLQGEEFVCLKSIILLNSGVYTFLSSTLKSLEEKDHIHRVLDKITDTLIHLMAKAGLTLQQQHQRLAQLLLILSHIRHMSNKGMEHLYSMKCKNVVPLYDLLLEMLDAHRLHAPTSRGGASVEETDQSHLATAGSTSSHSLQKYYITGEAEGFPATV
The experiment in a line: ERα coactivator recruitment enhancers – biochemical, TR-FRET, ERα LBD, dose response (AID 737).

A short description of test [11]: Potency on glucagon-like peptide 1 release, dose-response in NCI-H716 cell line, half maximal inhibitory concentration (AID 1117344). The class given is functional, cell-based.
Test [12] is described as follows: glucagon-like peptide-1 release potency in STC-1, concentration-response, half-maximal inhibitory concentration in the STC-1 line (AID 1117345). It counts as functional, cell-based.
The nature of test [13]: cells.
Test [14] can be described thus: cells. The class given is functional.
A short description of test [15]: viability of uninfected HEp-2 cells – cell-based, HTS, cytotoxicity control for RSV inhibitor project, dose response (AID 2410). Conditions: human respiratory syncytial virus. The class given is functional.
Test [16] has as its target T4, Aspartyl aminopeptidase (Plasmodium falciparum 3D7, UniProt Q8I2J3).
T4 sequence (Q8I2J3 whole entry): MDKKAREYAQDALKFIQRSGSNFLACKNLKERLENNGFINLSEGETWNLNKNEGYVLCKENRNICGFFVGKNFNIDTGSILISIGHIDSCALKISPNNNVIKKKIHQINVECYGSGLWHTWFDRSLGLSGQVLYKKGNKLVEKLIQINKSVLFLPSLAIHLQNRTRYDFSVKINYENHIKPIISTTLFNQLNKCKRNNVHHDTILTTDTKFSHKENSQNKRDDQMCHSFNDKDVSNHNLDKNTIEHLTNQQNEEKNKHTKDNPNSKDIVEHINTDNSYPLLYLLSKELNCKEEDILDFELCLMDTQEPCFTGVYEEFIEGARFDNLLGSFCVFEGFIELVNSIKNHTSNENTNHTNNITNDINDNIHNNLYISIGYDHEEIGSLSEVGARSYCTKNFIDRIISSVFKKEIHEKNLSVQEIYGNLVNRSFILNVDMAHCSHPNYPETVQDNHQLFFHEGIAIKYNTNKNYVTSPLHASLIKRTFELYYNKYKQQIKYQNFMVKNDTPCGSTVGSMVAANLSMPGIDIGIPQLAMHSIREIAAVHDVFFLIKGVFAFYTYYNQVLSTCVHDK

For test [17], the target named is Procathepsin L (Homo sapiens, UniProt P07711).
Chain of Procathepsin L (P07711 whole entry): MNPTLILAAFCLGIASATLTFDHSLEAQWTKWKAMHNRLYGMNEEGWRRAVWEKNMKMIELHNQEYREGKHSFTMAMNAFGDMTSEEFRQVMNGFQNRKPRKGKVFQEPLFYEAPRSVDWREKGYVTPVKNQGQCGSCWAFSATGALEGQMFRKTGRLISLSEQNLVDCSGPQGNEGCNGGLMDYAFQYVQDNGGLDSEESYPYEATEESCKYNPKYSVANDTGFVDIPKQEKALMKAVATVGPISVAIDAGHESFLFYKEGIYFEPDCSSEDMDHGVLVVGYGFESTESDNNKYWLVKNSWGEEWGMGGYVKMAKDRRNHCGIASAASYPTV

Chain of Cytochrome P450 2C9 (P11712 whole entry): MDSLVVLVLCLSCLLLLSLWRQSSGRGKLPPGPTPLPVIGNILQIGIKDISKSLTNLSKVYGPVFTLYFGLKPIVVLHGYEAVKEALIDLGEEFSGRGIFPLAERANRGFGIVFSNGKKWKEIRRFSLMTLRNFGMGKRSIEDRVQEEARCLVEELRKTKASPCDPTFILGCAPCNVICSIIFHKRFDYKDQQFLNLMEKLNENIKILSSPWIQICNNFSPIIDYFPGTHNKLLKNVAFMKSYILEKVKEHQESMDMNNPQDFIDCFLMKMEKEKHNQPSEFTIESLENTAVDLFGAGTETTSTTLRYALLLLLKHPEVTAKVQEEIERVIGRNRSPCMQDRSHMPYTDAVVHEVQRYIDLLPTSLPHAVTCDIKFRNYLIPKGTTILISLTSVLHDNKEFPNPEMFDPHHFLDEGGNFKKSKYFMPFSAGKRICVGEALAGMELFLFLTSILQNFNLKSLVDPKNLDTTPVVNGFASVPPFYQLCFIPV

In the case of `Cn1cc(/C=C2/SC(=O)N(CC(=O)Nc3ccc4c(c3)OCO4)C2=O)c2ccccc21`, the half-maximal activity concentration (AC50) in [1] is 7.08 µM (inconclusive). Moreover, the 50% inhibitory concentration (IC50) in test [2] was 5.72 µM (active); in [3], > 111 µM (not active).
`Cc1ccc(/C=C/C(=O)NC(=S)Nc2ccc(S(=O)(=O)Nc3cc(C)on3)cc2)cc1`: the concentration giving a half-maximal response (EC50) is 27.1 µM (inconclusive) in test [4], 9.56 µM (active) in test [7] and 62.4 µM (active) in test [8]. Besides, the half-inhibitory concentration (IC50) in test [5] is 9.71 µM (active); in [6] it was > 55.7 µM (not active).
`Cc1ccc(C(=O)c2oc3ccccc3c2NC(=O)c2cc(-c3cc(C)ccc3O)[nH]n2)cc1`: the cytotoxic concentration (CC50) in test [9] is 7.97 µM (active).
With `CCOc1ccccc1N1C(=O)NC(=O)C(CCc2ccncc2)(CCc2ccncc2)C1=O`, the EC50 in test [10] was 12.7 µM (active).
Regarding `C/C=C(/C(=C/C)c1ccc(O)cc1)c1ccc(O)cc1` [DIENESTROL], the EC50 in test [10] was 13.2 µM (active). The IC50 in test [11] and in [12] was > 40 µM (inactive) throughout.
As for `COc1ccc(NC(=O)CSc2nc(N)c(C(=O)Nc3ccc(N(C)C)cc3)s2)cc1`, the CC50 in test [9] is > 40 µM (active).
For `CCCCC1CCC(C(=O)Nc2ccc(S(=O)(=O)Nc3nccs3)cc2)CC1` (configuration not stated), the IC50 in [13] was 36.5 µM (active); in test [14], 14.5 µM (active). Moreover, the cytotoxic concentration (CC50) in test [15] was 34.3 µM (active).
With `COc1ccc(C(C(=O)NC2CCCC2)N(C(=O)c2snc(C(N)=O)c2N)c2cc(C)ccc2OC)cc1OC` (configuration not stated), in test [13], the IC50 is 6.11 µM (active).
Take `Cc1cccc(N2CCN(C(=O)c3cccc(N4C(=O)C5C6C=CC(C6)C5C4=O)c3)CC2)c1C` (configuration not stated): the half-maximal inhibitory concentration (IC50) in test [5] was 6.73 µM (active); in [6] it was 17.4 µM (not active).
Take `COc1ccc(NC(=O)NNC(=O)CCc2ccc(O)c(O)c2)cc1OC`: the values for the IC50 in [16] and in test [17] were 2.51 µM (active) and > 59.6 µM (not active), respectively.
